Entries after “also recorded” stand apart in the source; their conditions may differ.
Experiments:
[1] = test system: mice; experiment: Overall behavior and reactivities in mice; format: in vivo, mouse; conditions: dose not stated
Method: (§1) In the neuropsychopharmacological study which follows, a solution of CRL 41 153 in distilled water (pH 1.5) was administered intraperitoneally in a volume of 20 ml/kg to male mice and 5 ml/kg to male rats.
(§2) Groups of three animals are observed before and then 0.25 hour, 0.50 hour, 1 hour, 2 hours, 3 hours and 24 hours after the administration of CRL 41 153.

[2] = test system: rats; experiment: Overall behavior and reactivities in rats; format: in vivo, rat; conditions: dose not stated
Method: as §1, §2

[3] = test system: mice; experiment: Interaction with apomorphine in mice; format: in vivo, mouse; conditions: i.p.
Method: Groups of 6 mice receive CRL 41 153 0.5 hour before the subcutaneous injection of 1 or 16 mg/kg of apomorphine.

[4] = test system: rats; experiment: Interaction with apomorphine in rats; format: in vivo, rat; conditions: i.p.
Method: CRL 41 153 is administered to groups of 6 rats 0.5 hour before the subcutaneous injection of 0.5 mg/kg of apomorphine.

[5] = test system: rats; experiment: Interaction with amphetamine; format: in vivo, rat; conditions: i.p.
Method: Amphetamine (2 mg/kg) is injected intraperitoneally into groups of 6 rats 30 minutes after the administration of CRL 41 153. […] 4 mg/kg and 16 mg/kg, CRL 41 153 potentiates the intensity and duration of the stereotypies induced by amphetamine.

[6] = test system: mice; experiment: Interaction with reserpine; format: in vivo, mouse; conditions: i.p.
Method: Four hours after the intraperitoneal injection of 2.5 mg/kg of reserpine, groups of 6 mice receive CRL 41 153.

[7] = test system: mice; experiment: Interaction with oxotremorine; format: in vivo, mouse; conditions: i.p.
Method: CRL 41 153 is administered to groups of 6 mice 0.5 hour before the intraperitoneal injection of 0.5 mg/kg of oxotremorine.

[8] = test system: mice; experiment: Spontaneous motility; format: in vivo, mouse; conditions: i.p.
Method: 0.5 hour after they have received CRL 41 153, the mice (6 per dose, 12 control animals) are placed in an actimeter, where their motility is recorded for 30 minutes.

[9] = test system: mice; experiment: Motility reduced by habituation to the enclosure; format: in vivo, mouse; conditions: i.p.
Method: After they have stayed In the actimeters for 18 hours, (he mice (6 per dose, 12 control animals) receive CRL 41 153. They are immediately returned to their respective enclosures and, half an hour later, their motility is recorded for 30 minutes.

[10] = test system: mice; experiment: Motility reduced by hypoxic aggression; format: in vivo, mouse; conditions: i.p.
Method: Half an hour after they have received CRL 41 153, the mice (10 per dose, 20 control animals) are subjected to acute hypobaric anoxia [pressure reduction of 600 mm Hg (i.e. about 8×10^4 Pa) in 90 seconds; release of vacuum in 45 seconds] and are then placed in an actimeter, where their motility is recorded for 10 minutes.

[11] = test system: mice; experiment: Interaction with barbital; format: in vivo, mouse; conditions: i.p., barbital 220 mg/kg
Method: Half an hour after the administration of CRL 41 153, groups of 10 mice receive an intraperitoneal injection of barbital (220 mg/kg).

[12] = test system: mice; experiment: Behavioral despair; format: in vivo, mouse; conditions: forcibly immersed mice, i.p.
Text: Half an hour after they have received CRL 41 153, groups of 6 mice are placed in a beaker filled with water to a height of 6 cm. The total period of immobility between the 2nd and 6th minutes following immersion is noted.

[13] = test system: dogs; experiment: Cardiovascular study in anesthetized dogs; format: in vivo, dog
Method: Two dogs (average weight: 14.1 kg), anesthetized with nembutal, receive CRL 41 194 by intraduodenal administration at successive doses of 0.1 mg/kg, 0.5 mg/kg, 1 mg/kg, 2.5 mg/kg, 5 mg/kg and 10 mg/kg (in solution in physiological solvent).
The blood pressure, the heart rate, the blood flow through the femoral artery, the blood flow through the vertebral artery and the rectal temperature are measured. The coloration of the skin and the coloration of the bile, collected by catheterization of the bile duct after ligature of the cystic duct, are observed.
4 dogs (average weight: 14 kg), anesthetized with nembutal, receive CRL 41 221 by intraduodenal administration at successive doses of 0.1 mg/kg, 0.5 mg/kg, 1 mg/kg, 2.5 mg/kg, 5 mg/kg and 10 mg/kg. The blood pressure, the heart rate, the blood flow through the femoral artery, the blood flow through the vertebral artery and the rectal temperature are measured. The coloration of the skin is observed.

[14] = test system: gravid White New Zealand female rabbits; experiment: Teratogenicity in gravid White New Zealand rabbits; format: in vivo, rabbit; conditions: day 5 to day 18 of gestation; for Affected foetuses, %: normal limit 1.5%
Method: The protocol used comprised administering to gravid White New Zealand female rabbits (weighing each about 2900-3000 grams before gestation) a daily dose of 0 (batch of control animals), 5,10 or 50 mg/kg of each product to be tested by gastrogavage from day 5 to day 18 of gestation, then carrying out a cesarean operation on day 29 of gestation in order to enumerate:
(i) the total number of foestuses, and
(ii) the total number of foestuses presenting at least one malformation.
To appreciate the results of such a protocol it must be noted that natural malformations may occur. Statistically, the percentage of foetuses presenting at least one malformation in any control batch of gravid White New Zealand female rabbits is lower than or equal to 1.5% with respect to the total number of foetuses.
To be precise in this protocol a malformation comprises at least one of the following cases: articular limb blocade, anorous foetus, deviated tail, shorter tail, skull deformation, exemcephalia.

[15] = pH of solutions in distilled water; format: physicochemical
Method: The neuropsychopharmacological study was undertaken according to the procedures described above for CRL 41 153, CRL 41 213 being adminstered intraperitoneally, in solution in distilled water, in a volume of 20 ml/kg to male mice and a volume of 5 ml/kg to male rats, and the pH of the injected solution varying with the concentration of CRL 41 213 according to the data given in Table II below.

[16] = test system: CNS; experiment: Neuropsychopharmacological profile as a whole; format: in vivo, mice and rats
Method: as §1

[17] = 12.8 g/liter in distilled water
[18] = ≤0.05 g/liter in distilled water
[19] = anesthetized dogs, intraduodenal

| Structure (SMILES) | Overall behavior: observed effects (summary) [1] | Stereotype movements (summary) [1] | Overall behavior: observed effects (summary) [2] | Stereotype movements (summary) [2] | Effect on hypothermia induced by apomorphine [3] | Effect on stereotypies induced by apomorphine [4] | Effect on stereotypies induced by amphetamine [5] | Effect on hypothermia induced by reserpine [6] | Effect on hypothermic action of oxotremorine [7] | Spontaneous motor activity [8] | Motor activity of mice accustomed to their enclosure [9] | Motor recovery of mice after hypobaric hypoxia [10] | Duration of the sleep induced by barbital [11] | Period of immobility due to despair [12] | Vasodilator (conclusion) [13] | Affected foetuses, number ([14]; 5 mg/kg daily) | Total foetuses (live) ([14]; 5 mg/kg daily) | Affected foetuses, % ([14]; 5 mg/kg daily) [%] | Affected foetuses, number ([14]; 10 mg/kg daily) | Total foetuses (live) ([14]; 10 mg/kg daily) | also measured |
| --- | --- | --- | --- | --- | --- | --- | --- | --- | --- | --- | --- | --- | --- | --- | --- | --- | --- | --- | --- | --- | --- |
| CC(NC1CC1)C(=O)c1ccc(N)cc1 (centres unmarked) [CRL 41 246] | excitation with hyperreactivity in mice and rats | the presence of stereotype movements in mice and rats | excitation with hyperreactivity in mice and rats | the presence of stereotype movements in mice and rats | antagonism of the hypothermia | potentiation of the stereotypies | potentiation of the stereotypies | antagonism of the hypothermia | antagonism of the hypothermia | an increase in the spontaneous motor activity of mice | resumption in the motor activity of mice accustomed to their enclosure | improvement in the motor recovery | a reduction in the duration of the sleep induced by barbital | a reduction in the period of immobility | vasodiating properties | 1 | 89 | 1.12 | 0 | 94 | Effect on ptosis induced by reserpine [6]: antagonism of the ptosis induced by reserpine; Effect on trembling induced by oxotremorine [7]: antagonism of the trembling induced by oxotremorine; Affected foetuses, % ([14]; 10 mg/kg daily): 0%; pH ([15]; 0.1 g/liter in distilled water): 5.0; pH ([15]; 0.4 g/liter in distilled water): 4.5; pH ([15]; 0.8 g/liter in distilled water): 4.0; pH ([15]; 1.6 g/liter in distilled water): 3.5; pH ([15]; 6.4 g/liter in distilled water): 3.0; pH [15, 17]: 2.5; pH [15, 18]: 5.5; Antidepressant effects (overall) ([16]; conclusion of the tests): antidepressant effects; Stimulant effects (overall) ([16]; conclusion of the tests): stimulant effects; α-adrenergic stimulant effects (overall) ([16]; conclusion of the tests): α-adrenergic stimulant effects; Peripheral α-adrenergic signs (mydriasis, salivation, lacrimation, exophthalmos) ([16]; species and dose not stated): mydriasis; also recorded: salivation |
| CC(C(=O)c1ccc(N)cc1)N(C)C (centres unmarked) [CRL 41 233] | excitation with hyperreactivity in mice and rats | the presence of stereotype movements in mice and rats | excitation with hyperreactivity in mice and rats | the presence of stereotype movements in mice and rats | antagonism of the hypothermia | potentiation of the stereotypies | potentiation of the stereotypies | antagonism of the hypothermia | antagonism of the hypothermia | an increase in the spontaneous motor activity of mice | resumption in the motor activity of mice accustomed to their enclosure | improvement in the motor recovery | a decrease in the duration of the sleep induced by barbital | a decrease in the period of immobility | vasodiating properties; also recorded: vasodilating properties | 1 | 89 | 1.12 | 0 | 85 | Rectal temperature ([13]; anesthetized dogs): large increase in the rectal temperature; Femoral flow [13, 19]: increases the femoral and vertebral flows as from a dose of 5 mg/kg; Heart rate [13, 19]: the tachycardiac effect appearing at 10 mg/kg; Vertebral flow [13, 19]: increases the femoral and vertebral flows as from a dose of 5 mg/kg; Affected foetuses, % ([14]; 10 mg/kg daily): 0%; pH ([15]; 0.1 g/liter in distilled water): 5.0; pH ([15]; 0.2 g/liter in distilled water): 4.5; pH ([15]; 0.4 g/liter in distilled water): 4.0; pH ([15]; 0.8 g/liter in distilled water): 3.5; pH ([15]; 1.6 g/liter in distilled water): 3.0; pH ([15]; 3.2 g/liter in distilled water): 2.5; pH ([15]; 6.4 g/liter in distilled water): 2.0; pH [15, 17]: 1.5; pH ([15]; 50 g/liter in distilled water): 1.0; pH [15, 18]: 5.5; Antidepressant effects (overall) ([16]; conclusion of the tests): antidepressant and stimulant properties; Stimulant effects (overall) ([16]; conclusion of the tests): antidepressant and stimulant properties |
